Here are results for two compounds from article PMC12834051, “Improved synthesis and physicochemical characterization of the selective serotonin 2A receptor agonist 25CN-NBOH” (Beilstein Journal of Organic Chemistry, 2026).

A short description of series [1]: Stability in solution (HPLC peak areas). Type of series: physicochemical. The protocol:
The stability of 1 was determined in 67 mM sodium phosphate buffer (pH 7.40, I = 0.18 M) and water at 25 ± 0.5 °C. The solutions comprising 0.2 mg/mL of 1·HCl were kept in a temperature-controlled incubator, and samples were measured by HPLC immediately after sample preparation as well as after one and four weeks for the experiments in phosphate buffer and after four weeks for experiments in ultrapure water. The stability of 1 was assessed based on peak areas. The experiment was performed in triplicate.
(§1) Samples from distribution coefficient and stability experiments were analyzed using an Agilent 1260 Infinity system (Agilent Technologies, Santa Clara, CA, USA) equipped with a column oven (Mikrolab Aarhus, Højbjerg, Denmark) and an Agilent 1100 series system (Agilent Technologies), respectively. Reversed-phase chromatography was performed using a Gemini C18 column (150 × 4.60 mm, 5 µm) with a Gemini C18 precolumn (4 × 3.00 mm, Phenomenex, Torrance, CA, USA). Detection was performed at 241 nm, the column temperature was 30 °C, the injection volume was 10 µL, and the flow rate was 1 mL/min. The mobile phase consisted of acetonitrile and 0.1% phosphoric acid in the ratios 35:65 and 25:75, v/v for the distribution coefficient and stability experiments, respectively. The ChemStation software (Version B.04.03, Agilent Technologies) was used for instrument control and data collection.

Series [2] is described as follows: Thermodynamic solubility in ultrapure water. Type of series: physicochemical. As to the method: The solubility of 1·HCl in water was determined at 25 ± 0.5 °C by adding 30 mg to ultrapure water (3 mL) in screw-capped glass vials, giving a suspension where a solid precipitate could be observed at all timepoints. The samples were ultrasonicated for 3 min before being rotated in a temperature-controlled Incubator Hood TH 30 (Edmund Bühler, Bodelshausen, Germany). Sample aliquots of 600 µL were withdrawn after 30, 48, and 74 h and transferred to Eppendorf tubes. The samples were centrifuged at 19,000g for 15 min using a MiniSpin Plus (Eppendorf, Hamburg, Germany) and the supernatant filtered through a 0.45 µm PVDF filter (Ø = 4 mm, Phenomenex) with the first 400 µL being discarded. Samples were diluted with ultrapure water before measurement by a UV spectrophotometry at 241 nm using 10 mm micro quartz cuvettes (Hellma GmbH & Co. KG, Müllheim, Germany) and a Cary 60 UV–vis spectrophotometer (Agilent Technologies). Cary WinUV Simple Reads Application (Version 5.0.0, Agilent Technologies) was used for instrument control and data collection. The experiment was performed in triplicate.

Series [3] can be described thus: Apparent pKa by spectrophotometric titration (inForm, Sirius). Type of series: physicochemical. The conditions noted are these: for pKa: concentration-based, 30.8 °C, I = 0.172 M. The protocol:
The molar absorption coefficients and apparent pKa values of 1 were determined by spectrophotometry using an inForm instrument from Sirius Analytical (Forest Row, UK). Molar absorption coefficients (absorbance), as a function of the wavelength (185–750 nm) and pH in the interval 2.0–12.0, were determined at 30.8 °C. A stock solution (5.0 mM) of 1·HCl in N-methyl-2-pyrrolidone (NMP) was added to 36 mL of an ionic strength-adjusted buffer solution (I = 0.172 M) containing acetate, phosphate, and sodium chloride while stirring at 300 rpm. The concentration of 1 during measurements ranged from 13–27 µM (three experiments each with three titrations were performed). Potentiometric titrations from high to low pH and low to high pH were performed by addition of 0.50 M HCl and 0.50 M NaOH, respectively, while UV–vis spectra were recorded using the fiber optic probe (10 mm light path) of the inForm diode array spectrometer. The instrument control and data analysis were performed using the inForm software Version 1.1.3.6 (Sirius Analytical, Forest Row, UK).

Series [4] can be described thus: Octanol/buffer distribution coefficient (logD). Format: physicochemical. The conditions noted are these: 25 °C. The protocol: The pH-dependent octanol/buffer distribution coefficients of 1 were determined at 25 ± 0.5 °C using the following buffers: 50 mM sodium citrate (pH 5.00, I = 0.15 M), 67 mM sodium phosphate (pH 7.40, I = 0.18 M), and 50 mM sodium carbonate (pH 9.50, I = 0.15 M). The ionic strength of the buffers was adjusted by adding a calculated amount of potassium chloride. The octanol phases were saturated with the appropriate buffer solution, and vice versa, before the start of the experiment. Solutions of 2, 0.5, and 0.1 mg/mL of the drug in the buffer solutions at pH 5.00, 7.40, and 9.50, respectively, were prepared. The organic phase was hereafter added to the buffer solution in a ratio of 1:9 at pH 5.00 and 7.40 and 1:19 at pH 9.50. The samples were rotated for 24 h in a temperature-controlled incubator at 25 °C. The concentration of 1 in the buffer solution before and after partitioning, ci and cw, respectively, was determined by HPLC, from which distribution coefficients, D, were calculated according to
where Vw and Vo are the volume of the buffer solution and organic phase, respectively. Each experiment was conducted in triplicate.
as §1

The conditions of series [5]: buffer at pH 7.4; cited from earlier work.
For series [6] the following is noted: in vivo, rodents; maximal brain exposure rapidly attained; cited from earlier work.
In another series the test system is MDCK. The conditions noted are these: MDCK assay, cited from earlier work.
Setting [7] is: pH 7.4, calculated species distribution.

SMILES strings stand for the structures. ≈ marks a conversion by molar mass, not a printed value. Where “and” joins values, the source holds several entries; their conditions need not be identical. Identical values can stand only once. Entries after “also recorded” stand apart in the source; their conditions may differ. Counter-ions that a name gives are not always drawn. Like-named read-outs stand apart in the source and are kept apart here.

With `COc1cc(CCNCc2ccccc2O)c(OC)cc1C#N` [1·HCl, 25CN-NBOH·HCl], in series [1] (phosphate buffer pH 7.4, 25 °C, 4 weeks), the “stability in solution in phosphate buffer” value is given as “stable”. For the same compound, the stability in water entry in series [1] (water, 25 °C, 4 weeks (1 month)) was “could not detect additional species; also recorded: stable”. The “pH of saturated solution in water” value in series [2] (saturated solution of 1·HCl in ultrapure water) was 6.24 ± 0.01 and 6.24. In series [2] (ultrapure water, 25 °C, pH 6.24, water, thermodynamic from solid), this compound displayed a thermodynamic solubility of 8500 ± 300 µg/mL. The kinetic solubility result in series [2] (water, preparing 5 mg/mL requires shaking for several minutes) is on record as “low”.
For `COc1cc(CCNCc2ccccc2O)c(OC)cc1C#N` [Compound 1, 25CN-NBOH], the results for the pKa in series [3] (read-out: apparent pKa (phenol)) and in series [3] (read-out: apparent pKa (protonated amine)) were 10.7 ± 0.1 and 8.4 ± 0.1, respectively. The “fraction present in the protonated form” value in series [3] (pH 6.24, saturated solution of 1·HCl in ultrapure water) is reported as above 99%; in series [3] (setting [7]) it was “approximately 90%”. Also, the “fraction present as the neutral species” value is recorded as around 10% in series [3] (setting [7]) and 87% in series [3] (pH 9.5, calculated species distribution). Moreover, the logD at 24 h in series [4] (pH 5.00, octanol/50 mM sodium citrate) is -0.76 ± 0.01; in series [4] (pH 7.4, pH 7.40, octanol/67 mM sodium phosphate) it was 1.59 ± 0.02; in series [4] (pH 9.5, pH 9.50, octanol/50 mM sodium carbonate) it was 2.58 ± 0.01. For the same compound, the solubility in buffer in series [5] is 400 µg/mL (≈ 1280 µM). Moreover, in series [6], the BBB permeability result was “excellent BBB permeability”. In addition, the “permeability apical–basal” value with MDCK (apical–basal) was 29 ×10⁻⁶ cm/s. Further, the “permeability basal–apical” value with MDCK (basal–apical) is 20 ×10⁻⁶ cm/s.

In general, solubility (thermodynamic) refers to the concentration in solution at equilibrium with solid. The pKa is the pH at which an ionisable group is half protonated. Broadly, the logD is lipophilicity at a set pH, counting ionised and neutral species.
